Test results published in patent US12116356B2, “N-heterocyclic five-membered ring-containing capsid protein assembly inhibitor, pharmaceutical composition thereof, and use thereof” (CHIA TAI TIANQING PHARMACEUTICAL GROUP CO., LTD., priority 2018, dated 2024).
pEC50: −log10 of the molar value.

Key:
[1] = tested on: HBV DNA in HepAD38 cells; experiment: In vitro cell HBV DNA inhibitory activity (anti-HBV activity) in HepAD38 cells; assay type: cell-based; conditions: Hepatitis B virus, 144 h; anti-HBV activity in HepAD38 cells, 6 days treatment, intracellular capsid HBV DNA by qPCR; read-out: EC50
Method in brief: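 HepG2.2.15 or HepAD38 cells on collagen-coated plates were grown 48 h, then treated 6 days with 10-point two-fold compound dilutions, with medium and compound refreshed every 72 h. Intracellular capsid HBV DNA quantified by real-time qPCR. EC50 from Ct-based inhibition by four-parameter fit.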

[2] = Plasma protein binding assay (equilibrium dialysis), human plasma; assay type: in vitro ADME
Protocol: (§1) Formulation of plasma sample: 495 μL of blank plasmas of the corresponding species (mouse, rat, dog, monkey, and human) were drawn respectively, and thereto was added 5 μL of the corresponding test compound solution or positive control to give plasma sample solutions having a plasma drug concentration of the compound of 1 μM, and 10 μM, respectively (formulated with acetonitrile).
(§2) The pre-treated dialysis membrane was placed in a high-throughput equilibrium dialysis device, and 100 μL of the plasma sample solution and PBS buffer solution were drawn and added respectively to both sides of the dialysis membrane (sample side and buffer side) (n=3). After the equilibration device was sealed with a film, it was incubated at 37° C. overnight (100 rpm). After dialysis equilibrium was reached, 50 μL samples were drawn from the sample side and the buffer side, respectively, and the reaction was terminated by adding ice acetonitrile containing an internal standard.
(§3) Sample pre-treatment: To 50 μL of the plasma-side sample was added 450 μL of ice acetonitrile containing an internal standard, and then precipitated. After vortexing for 5 minutes, the sample was centrifugated (12000 rpm, 4° C.) for 10 minutes. 75 μL of the supernatant was pipetted, and 75 μL of ultrapure water was added thereto for dilution and mixed uniformly. 1 μL of the resulting solution was injected for analysis. To 50 μL of the PBS-side sample was added 250 μL of ice acetonitrile with an internal standard, and precipitated. After vortexing for 5 min, the sample was centrifugated (12000 rpm, 4° C.) for 10 min. 75 μL of the supernatant was pipetted, and 75 μL of ultrapure water was added thereto for dilution and mixed uniformly. 2 μL of the resulting solution was injected for analysis.

[3] = Plasma protein binding assay (equilibrium dialysis), dog plasma; assay type: in vitro ADME
Protocol: as §1, §2, §3

[4] = Stability of rat liver microsomes in vitro; assay type: in vitro ADME
Protocol: 300 μL of a final incubation system contains 30 μL of liver microsomes (protein concentration: 0.15 mg/mL), 30 μL NADPH+MgCl2, 3 μL substrate (formulated with acetonitrile), and 237 μL PBS buffer. Duplicate incubation systems of 0.3 mL each were formulated for each species. A total volume of 270 μL of a uniformly mixed solution of the substrate and the enzyme was formulated in each tube, the solution and NADPH were pre-incubated at 37° C. for 5 minutes, respectively. Then 30 μL of the mixed solution of NADPH+MgCl2 was added for reaction. 50 μL of the reaction solution was taken out at 0, 10, 30, and 60 mins, and the reaction was terminated with 300 μL of ice acetonitrile containing an internal standard.
Sample pre-treatment: To 50 μL of the incubated sample was added 300 μL of ice acetonitrile containing diazepam as an internal standard and then precipitated. After vortexing for 5 minutes, the sample was centrifugated (12000 rpm, 4° C.) for 10 minutes. 75 μL of the supernatant was pipetted into a 96-well plate, and then diluted with 75 μL ultrapure water and mixed uniformly. 0.5 μL of the resulting solution was injected and analyzed by LC-MS/MS.

[5] = tested on: HBV DNA in HepG2.2.15 cells; experiment: In vitro cell HBV DNA inhibitory activity (anti-HBV activity) in HepG2.2.15 cells; assay type: cell-based; conditions: Hepatitis B virus, 144 h; anti-HBV activity in HepG2.2.15 cells, 6 days treatment, intracellular capsid HBV DNA by qPCR; read-out: EC50
Protocol: A bottle of HepG2.2.15 or HepAD38 cells in good exponential growth state was taken, washed once by adding 5 mL PBS, and then thereto was added 3 mL trypsin. After digesting at room temperature for 5 min, 2 mL trypsin was discarded, and then the sample was placed in a cell culture incubator and digested for 10 min. The cells were taken out from time to time and observed under a microscope (whether the cells were individually round and there was no adhesion between the cells). 10 mL complete medium was added to terminate the digestion. After pipetting into a single cell suspension, 10 μL of the cell suspension was taken out for cell counting with a cell counter, and then diluted with a complete medium and adjusted to a cell density of 1*10^5 cells/mL. Then the cell suspension was seeded at 1 mL/well in a 24-well plate with a multi-channel pipette (the 24-well plate was coated with 50 μg/mL Collagen I solution in advance), and cultured in a constant temperature CO2 incubator for 48 h.
Different compounds dissolved in DMSO were subjected to two-fold gradient dilution (10 concentrations in total) with complete medium. The compound was added, and fresh medium containing the compound was used to replace the spent medium every 72 hours. The cells were treated with the compound for 6 days. After the supernatant was siphoned off, 300 μL lysate (10 mM Tris-HCl, 1 mM EDTA, and 1% NP-40) was added to each well. After lysing at room temperature for 10 min, DNA was extracted, and HBV DNA in the intracellular viral capsid was measured by real-time fluorescence quantitative PCR. The inhibition rate was calculated based on the Ct value, and the EC50 value was calculated by the four-parameter method.

[6] = Plasma protein binding assay (equilibrium dialysis), monkey plasma; assay type: in vitro ADME
Protocol: as §1, §2, §3

[7] = tested on: rAAV8-1.3HBV virus (adr subtype); experiment: Antiviral effect evaluation in AAV mouse model; assay type: in vivo, C57BL/6 mice; conditions: 30 mpk intragastric once daily, administration for 24 days
Protocol: 6-8 week old male C57BL/6 mice were injected with rAAV8-1.3HBV virus (adr subtype) at tail vein at a dose of 1×10^11 vg. Blood was collected from the orbits of the mice on week 2 and 4 after the virus injection. The serum was separated, and the expression levels of HBeAg and HBsAg in the serum and the HBV DNA copy number were detected to evaluate whether the model was successfully established. According to the results of quantitative detection of serological HBeAg, HBsAg and HBV DNA, the mice having HBV DNA expression level greater than 1×10^4 IU/mL, HBeAg expression level greater than 1×10^3 NCU/mL and HBsAg expression level greater than 1×10^3 ng/mL were selected. The mice were grouped into a blank control group, a vehicle control group, and a test substance group. […] During the experiment, blood was collected from the orbits every other week, serum was separated, and the DNA content was detected by fluorescent quantitative PCR method.

[8] = Plasma protein binding assay (equilibrium dialysis), rat plasma; assay type: in vitro ADME
Protocol: as §1, §2, §3

| Compound | pEC50 [1] | Binding rate ([2]; 1 μM) [%] | Binding rate ([2]; 10 μM) [%] | Binding rate ([3]; 1 μM) [%] | Binding rate ([3]; 10 μM) [%] | Remaining (%) at 60 min [4] [%] | pEC50 [5] | Binding rate ([6]; 1 μM) [%] | Binding rate ([6]; 10 μM) [%] | Reduction levels (log10) of HBV DNA in serum, Day 7 [7] [log10] | Reduction levels (log10) of HBV DNA in serum, Day 14 [7] [log10] | Reduction levels (log10) of HBV DNA in serum, Day 21 [7] [log10] | Reduction levels (log10) of HBV DNA in serum, Day 28 [7] [log10] | Binding rate ([8]; 1 μM) [%] | Binding rate ([8]; 10 μM) [%] |
| --- | --- | --- | --- | --- | --- | --- | --- | --- | --- | --- | --- | --- | --- | --- | --- |
| Cc1c(C(=O)Nc2ccc(F)c(C#N)c2)c(C)n(C)c1C(=O)C(=O)N[C@@H](C)C(F)(F)F [Example 12] | > 8.00 | 94.0 | 93.7 | 85.9 | 85.9 | 65.0 | > 8.00 | 90.7 | 90.6 | 2.42 | 3.46 | 5.08 | 2.48 | 82.0 | 79.2 |
| Cc1c(C(=O)Nc2ccc(F)c(C#N)c2)c(C)n(C)c1C(=O)C(=O)NC1(C(F)(F)F)COC1 [Example 25, N-(3-cyano-4-fluorophenyl)-1,2,4-trimethyl-5-(2-oxo-2-((3-(trifluoromethyl)oxetan-3-yl)amino)acetyl)-1H-pyrrole-3-carboxamide] | > 8.00 | 92.9 | 92.2 | 87.0 | 86.8 | 52.0 | > 8.00 | 87.4 | 85.6 | 1.16 | 1.76 | 2.89 | 1.28 | 79.5 | 77.0 |
